Measurements from ChEMBL document CHEMBL3301562, “MMV Box screening against Plasmodium falciparum protein kinases and aminoacyl tRNA synthetases”.

Assays:
Format in all cases: functional
[1] = target: T1, Putative uncharacterized protein pk7 (Plasmodium falciparum, UniProt O96214); test: Final concentrations were 1 uM ATP, 2 mM DTT, 20 mM MgCl2, 2 mM MnCl2, 0.01% BSA, and 6 ug/ml PK7, in a buffer of 20 mM Tris-HCl (pH 7.5). The enzyme itself was the only substrate present (since autophosphorylation occurs); 100 uM 1NA-PP1 was used as a control inhibitor. Incubation time was 3 hours.
T1 sequence (O96214 whole entry): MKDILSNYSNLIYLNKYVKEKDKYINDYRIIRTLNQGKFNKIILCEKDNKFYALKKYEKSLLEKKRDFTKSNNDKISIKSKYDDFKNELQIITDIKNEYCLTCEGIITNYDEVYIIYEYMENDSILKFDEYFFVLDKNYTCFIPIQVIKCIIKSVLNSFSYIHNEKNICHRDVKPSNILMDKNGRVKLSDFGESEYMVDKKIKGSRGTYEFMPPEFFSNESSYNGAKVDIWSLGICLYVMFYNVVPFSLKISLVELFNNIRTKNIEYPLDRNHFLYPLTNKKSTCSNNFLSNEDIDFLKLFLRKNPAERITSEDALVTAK

[2] = target: T2, Calcium-dependent protein kinase 4 (Plasmodium falciparum (isolate 3D7), UniProt Q8IBS5); test: MMV: CDPK4 Protein kinase inhibition assay using recombinant PfCDPK4, syntide2 peptide substrate, ATP and KinaseGlo to measure % inhibition at 1 uM MMV box compound.
T2 sequence (Q8IBS5 whole entry): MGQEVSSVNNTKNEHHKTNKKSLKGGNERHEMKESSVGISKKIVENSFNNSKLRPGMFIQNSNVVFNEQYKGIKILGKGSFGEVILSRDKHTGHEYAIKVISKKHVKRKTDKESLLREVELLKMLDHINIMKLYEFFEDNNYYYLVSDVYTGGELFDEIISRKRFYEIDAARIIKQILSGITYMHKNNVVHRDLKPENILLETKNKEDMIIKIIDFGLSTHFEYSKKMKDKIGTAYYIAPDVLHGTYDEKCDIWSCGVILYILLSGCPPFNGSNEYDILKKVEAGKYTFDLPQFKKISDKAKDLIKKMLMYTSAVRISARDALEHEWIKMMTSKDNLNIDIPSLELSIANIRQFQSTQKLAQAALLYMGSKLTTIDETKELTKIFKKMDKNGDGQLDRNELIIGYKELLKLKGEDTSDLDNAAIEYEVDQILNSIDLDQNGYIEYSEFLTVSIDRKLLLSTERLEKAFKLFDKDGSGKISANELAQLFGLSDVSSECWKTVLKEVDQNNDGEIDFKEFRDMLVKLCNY

[3] = target: T3, Mitogen-activated protein kinase (Plasmodium falciparum, UniProt Q25917); test: Final concentrations were 1 uM ATP, 0.5 mM DTT, 1 mM MgCl2, 0.5 mg/mL BSA, and 10 ug/ml MAP2 in a buffer of 50 mM HEPES (pH 7.0). 0.5 mg/mL histone III-S served as the substrate (13); 100 uM AMP-PNP, an ATP analog, was used as a control inhibitor. Incubation time was 4 hours.
T3 sequence (Q25917 whole entry): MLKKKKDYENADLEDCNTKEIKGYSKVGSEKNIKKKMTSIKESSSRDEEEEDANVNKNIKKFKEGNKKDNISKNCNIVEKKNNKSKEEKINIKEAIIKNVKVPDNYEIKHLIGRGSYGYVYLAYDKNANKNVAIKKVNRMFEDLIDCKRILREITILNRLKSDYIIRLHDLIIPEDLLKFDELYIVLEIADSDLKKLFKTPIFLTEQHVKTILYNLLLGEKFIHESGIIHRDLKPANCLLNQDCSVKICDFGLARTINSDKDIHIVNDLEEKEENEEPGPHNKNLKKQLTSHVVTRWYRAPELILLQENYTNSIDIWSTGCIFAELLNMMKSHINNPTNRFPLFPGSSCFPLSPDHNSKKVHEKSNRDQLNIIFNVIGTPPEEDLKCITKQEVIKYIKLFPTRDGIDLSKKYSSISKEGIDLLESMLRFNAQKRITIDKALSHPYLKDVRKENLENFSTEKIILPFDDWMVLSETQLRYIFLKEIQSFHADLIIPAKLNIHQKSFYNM

[4] = target: T4, Cdk-related protein kinase 6 (Plasmodium falciparum, UniProt O77239); test: Final concentrations were 1.5 uM ATP, 5 mM MnCl2, and 15 ug/ml PK6 in a buffer of 100 mM Tris-HCl (pH 7.5). 50 ug/mL MBP was provided as the substrate; 10 uM staurosporine was used as a control inhibitor. Incubation time was 3 hours and 40 minutes.The catalytic activity of each kinase was considered proportional to ATP consumed, as determined from measurements of residual [ATP] with the luciferase-based reagent Kinase-Glo (Promega) following incubation. Luminescence (proportional to residual [ATP]) was measured on the plate readers FLx800 (BioTek Instruments, Winooski, VT, USA) and MicroBeta2.
T4 sequence (O77239 whole entry): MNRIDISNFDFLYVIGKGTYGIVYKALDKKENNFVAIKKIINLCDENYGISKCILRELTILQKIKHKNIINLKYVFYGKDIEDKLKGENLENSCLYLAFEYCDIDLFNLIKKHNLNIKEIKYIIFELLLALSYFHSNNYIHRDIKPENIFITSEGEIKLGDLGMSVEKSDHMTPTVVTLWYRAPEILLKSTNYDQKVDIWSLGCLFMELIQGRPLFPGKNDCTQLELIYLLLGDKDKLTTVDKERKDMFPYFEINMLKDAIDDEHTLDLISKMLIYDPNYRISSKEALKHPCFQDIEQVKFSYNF

[5] = target: Calcium-dependent protein kinase 1 (Plasmodium falciparum, UniProt P62344); test: MMV: CDPK1 Protein kinase inhibition assay using recombinant PfCDPK1, syntide 2 peptide substrate, ATP and KinaseGlo to measure % inhibition at 1 uM MMV box compound.
[6] = target: T5, Proline--tRNA ligase (Plasmodium falciparum (isolate 3D7), UniProt Q8I5R7); test: MMV: ProRS recombinant Plasmodium falciparum Prolyl-tRNA-synthetase, assay with yeast tRNA, ATP, and proline and 3 uM MMV malaria box compound, assay read out with kinase glo as % inhibition.
T5 sequence (Q8I5R7 whole entry): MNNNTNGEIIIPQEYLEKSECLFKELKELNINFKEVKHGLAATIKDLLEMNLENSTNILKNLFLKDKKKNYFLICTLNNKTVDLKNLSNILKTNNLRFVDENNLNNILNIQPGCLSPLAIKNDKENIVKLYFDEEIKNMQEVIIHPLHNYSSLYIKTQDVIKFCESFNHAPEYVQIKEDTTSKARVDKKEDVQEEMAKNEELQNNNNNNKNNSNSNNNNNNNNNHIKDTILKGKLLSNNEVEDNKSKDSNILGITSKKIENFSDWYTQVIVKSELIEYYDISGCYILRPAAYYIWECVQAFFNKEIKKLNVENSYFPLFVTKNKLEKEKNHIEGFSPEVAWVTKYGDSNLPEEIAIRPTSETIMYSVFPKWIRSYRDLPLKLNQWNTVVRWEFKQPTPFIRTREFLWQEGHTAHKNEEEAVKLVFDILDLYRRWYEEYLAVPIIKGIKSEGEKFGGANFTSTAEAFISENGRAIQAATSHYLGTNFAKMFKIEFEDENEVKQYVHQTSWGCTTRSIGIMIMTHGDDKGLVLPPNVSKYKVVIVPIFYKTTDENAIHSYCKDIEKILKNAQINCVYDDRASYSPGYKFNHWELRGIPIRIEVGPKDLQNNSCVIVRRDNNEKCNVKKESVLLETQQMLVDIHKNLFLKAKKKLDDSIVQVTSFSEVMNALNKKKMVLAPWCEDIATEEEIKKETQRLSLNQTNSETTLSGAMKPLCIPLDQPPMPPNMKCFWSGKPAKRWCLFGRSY

[7] = target: Lysine--tRNA ligase (Plasmodium falciparum (isolate 3D7), UniProt Q8IDJ8); test: MMV: KRS recombinant Plasmodium falciparum Lysyl-tRNA-synthetase, assay with yeast tRNA, ATP, and lysine and 3 uM MMV malaria box compound, assay read out with kinase glo as % inhibition.

Measured: IC50

Lysine--tRNA ligase, sequence (Q8IDJ8 whole entry): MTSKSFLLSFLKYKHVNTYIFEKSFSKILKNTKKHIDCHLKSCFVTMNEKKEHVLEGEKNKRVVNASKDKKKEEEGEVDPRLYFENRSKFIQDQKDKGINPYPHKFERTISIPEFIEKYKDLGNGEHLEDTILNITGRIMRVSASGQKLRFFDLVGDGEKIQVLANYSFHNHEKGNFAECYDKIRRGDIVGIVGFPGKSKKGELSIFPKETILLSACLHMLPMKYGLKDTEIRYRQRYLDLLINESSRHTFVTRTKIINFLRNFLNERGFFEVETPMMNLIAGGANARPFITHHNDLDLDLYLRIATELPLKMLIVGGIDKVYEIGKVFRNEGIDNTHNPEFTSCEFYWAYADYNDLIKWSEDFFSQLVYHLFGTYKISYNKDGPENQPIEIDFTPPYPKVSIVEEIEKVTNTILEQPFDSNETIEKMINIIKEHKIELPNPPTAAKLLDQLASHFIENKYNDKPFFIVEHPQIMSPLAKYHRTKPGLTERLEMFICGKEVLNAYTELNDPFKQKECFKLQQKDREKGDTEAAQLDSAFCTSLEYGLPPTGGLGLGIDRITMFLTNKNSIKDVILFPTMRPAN
Calcium-dependent protein kinase 1, sequence (P62344 whole entry): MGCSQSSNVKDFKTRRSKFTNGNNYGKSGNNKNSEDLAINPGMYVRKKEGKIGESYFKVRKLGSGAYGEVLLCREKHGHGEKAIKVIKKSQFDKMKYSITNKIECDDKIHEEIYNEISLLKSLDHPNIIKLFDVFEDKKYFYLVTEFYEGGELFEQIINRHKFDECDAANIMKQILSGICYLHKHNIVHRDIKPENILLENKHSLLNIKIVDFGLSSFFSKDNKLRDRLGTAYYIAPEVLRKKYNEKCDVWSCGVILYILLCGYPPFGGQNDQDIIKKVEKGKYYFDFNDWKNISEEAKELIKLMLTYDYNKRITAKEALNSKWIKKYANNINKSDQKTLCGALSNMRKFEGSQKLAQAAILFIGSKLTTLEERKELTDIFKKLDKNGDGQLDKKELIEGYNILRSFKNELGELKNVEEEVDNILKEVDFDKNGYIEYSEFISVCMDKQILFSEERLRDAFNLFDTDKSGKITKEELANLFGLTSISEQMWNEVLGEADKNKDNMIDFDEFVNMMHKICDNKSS

CN1CCN(c2nc(Nc3ccc(O)cc3)nc3ccccc23)CC1
> 2.5 µM: [6] | [7]
> 1 µM: all other assays above

FC(F)(F)c1cccc(Nc2nc3ccccc3nc2Nc2cccc(C(F)(F)F)c2)c1
> 2.5 µM: [6] | [7]
> 1 µM: all other assays above

CN1C=C(c2ccc3ccccc3n2)C(c2c[nH]c3ccccc23)c2ccccc21 (stereo not given)
> 2.5 µM: [6] | [7]
> 1 µM: all other assays above

Cc1ccc(CSCc2ccc(C(=O)NC3CC3)o2)cc1
> 2.5 µM: [6] | [7]
> 1 µM: all other assays above

Cc1cc(C)cc(Nc2cc(C)nc3nc(C(F)(F)F)nn23)c1
> 2.5 µM: [6] | [7]
> 1 µM: all other assays above

CCCCCn1c(=N)n(CC(O)COc2cccc(C)c2)c2ccccc21 (stereo not given)
> 2.5 µM: [6] | [7]
> 1 µM: all other assays above

CSC1=NC(=Nc2c(C)cccc2C)C2(CCC(C(C)(C)C)CC2)N1c1ccc(Cl)cc1 (stereo not given)
> 2.5 µM: [6] | [7]
> 1 µM: all other assays above

OC(CNCC1CCCO1)Cn1c2ccc(Cl)cc2c2cc(Cl)ccc21 (stereo not given)
> 2.5 µM: [6] | [7]
> 1 µM: all other assays above

Brc1ccc(Nc2nc3ccccc3nc2Nc2ccc(Br)cc2)cc1
> 2.5 µM: [6] | [7]
> 1 µM: all other assays above

Cc1cc(N(C)C)nc(Nc2ccc(NC(=O)Nc3ccccc3)cc2)n1
> 2.5 µM: [6] | [7]
> 1 µM: all other assays above
